# Reference: patent US20210030022A1, “NOVEL USE OF SUBSTITUTED CHROMAN-6-OLS” (DSM IP ASSETS B.V., priority 2018, published 2021)
# Columns and labels:
# [1] = Oil Stability Index (OSI) in fish oil, Example 13; details: for antioxidant activity (OSI) in fish oil compared with MNT: Example 13, 0.5 and 2 mg/g; for OSI: Table 28, FG30TG fish oil, 80° C.; for Protection Factor (%): Table 34, fish oil (80° C.)
# Experimental: The compounds of formulae (3) and (7) were used in both fish and algal oils to see their antioxidant effect in these oils. Antioxidant effect was determined using mainly the Oil Stability Index (OSI). Two concentration levels were used: 0.5 mg/g (low level) and 2 mg/g (high level), respectively, have been added to 5 g of oil and used in the Oxidative Stability Instrument operated at 80° C. with the continuous air flow rate at ˜40 psi. All samples were run in duplicate. The Protection Factors (PF) for each compound, as percentage, in oil were calculated as, [formula]
# Solubility in fish oil = format: physicochemical
# Experimental: The compounds of formulae (4), (6), (8) and (9) were evaluated primarily for their oxidative stability by the Oil Stability Index (OSI) measurements. Two different levels of these antioxidants (0.5 and 2 mg/g) were used in 5 g of natural fish oil (Product code: FG30TG) and used in the Oxidative Stability Instrument at 80° C. with the air flow rate of 40 psi. The solubility of different amounts and types of antioxidants used in OSI was checked before and after the application. […]
# [2] = Storage stability in fish oil (PV, p-AV), Example 13; details: storage at 25° C.
# Experimental: A storage stability study was performed to compare the variation of primary oxidation products, the hydroperoxides, generated during oxidation, measured in terms of peroxide value (PV) and the secondary oxidation products which were measured and determined as anisidine reactive substances or p-anisidine value (p-AV) of oil samples containing these compounds.
# The two different concentrations of compounds of formulae (3) and (7) were used for the storage stability study. Each compound and MNT were added, each individually, to 40 g of fish oil samples in 60 ml amber bottles at 0.5 mg/g and 2 mg/g levels, thoroughly mixed and stored at ambient temperature for 19 days. All sample bottles were stored open to air, away from light. […] Peroxide values (PV) and p-anisidine values (p-AV) were determined at different times for 19 days.
# [3] = Oil Stability Index (OSI) in crude algal oil, Example 13; details: for OSI: Table 33, crude algal oil (contained about 1.6 mg/g MNT prior to use), 80° C.; for Protection Factor (%): Table 35, crude algal oil (80° C.)
# Experimental: The compounds of formulae (3) and (7) were used in both fish and algal oils to see their antioxidant effect in these oils. Antioxidant effect was determined using mainly the Oil Stability Index (OSI).
# Two concentration levels were used: 0.5 mg/g (low level) and 2 mg/g (high level), respectively, have been added to 5 g of oil and used in the Oxidative Stability Instrument operated at 80° C. with the continuous air flow rate at ˜40 psi. All samples were run in duplicate. The Protection Factors (PF) for each compound, as percentage, in oil were calculated as,
# The Oil Stability Indices (OSI) of crude algal oil with levels of 0.5 mg/g and 2 mg/g of compounds of formulae (3) or (7) are shown in Table 33.
# [4] = Storage stability in fish oil (PV, p-AV, CD), Example 12; details: FG30TG, 2 mg/g
# Experimental: Tables 25, 26 and 27 show the PV (peroxide value), p-AV (p-anisidine value) and CD (Conjugated dienoic acid %) of the fish oil samples stabilized with compounds of formulae (6), (8) and (9), respectively.
# For the storage stability study oil soluble compounds were used in fish oil at 2 mg/g level only. […] There was no considerable variation in p-AV and CD (Tables 26-27) during the storage.
# [5] = Oil Stability Index (OSI) in fish oil, Example 12; details: FG30TG fish oil
# Experimental: The compounds of formulae (4), (6), (8) and (9) were evaluated primarily for their oxidative stability by the Oil Stability Index (OSI) measurements. Two different levels of these antioxidants (0.5 and 2 mg/g) were used in 5 g of natural fish oil (Product code: FG30TG) and used in the Oxidative Stability Instrument at 80° C. with the air flow rate of 40 psi. The solubility of different amounts and types of antioxidants used in OSI was checked before and after the application.
# The compounds of formulae (6) and (9) (see Table 14 below), compound of formula (4) (see Table 15 below) and compound of formula (8) (see Table 16 below) were used at different times in the Oxidative Stability instruments under similar operational conditions used for fish oil evaluations. MNT and the oil without any antioxidants (“Blank”) were always used to compare. Also, the synergistic effect of only oil soluble compounds with ascorbyl palmitate was determined using the OSI values. The polymers generated at the end of the experiment were determined by LC (LC=liquid chromatography).
# The Protection Factors (PF) for each compound in oil were calculated in percentage as: […]
molecule,measurement,setting,value
"6-Hydroxy-7-Methoxy-2,2-Dimethyl-Chroman-4-One [Compound of formula (10)]",antioxidant activity (OSI) in fish oil compared with MNT,[1],comparable antioxidant activity to MNT
"CC(C)CCCC1(C)CCc2cc(O)ccc2O1 (centres unmarked) [Compound of formula (7), 2-(4-methylpentyl)-2-methyl-chroman-6-ol]",Solubility in oil,"Solubility in fish oil; fish oil, 0.5 and 2 mg/g, mixed around 40° C. to dissolve completely",not readily soluble in oil
same,"Peroxide values (PV, meq/kg)","[2]; 0.5 mg/g level, 1 day",1 meq/kg
same,p-Anisidine value (p-AV),"[2]; 0.5 mg/g level, 1 day",9.5
same,"Peroxide values (PV, meq/kg)","[2]; 0.5 mg/g level, 5 days",2 meq/kg
same,p-Anisidine value (p-AV),"[2]; 0.5 mg/g level, 5 days",9.8
same,"Peroxide values (PV, meq/kg)","[2]; 0.5 mg/g level, 8 days",6.4 meq/kg
same,p-Anisidine value (p-AV),"[2]; 0.5 mg/g level, 8 days",11.1
same,"Peroxide values (PV, meq/kg)","[2]; 0.5 mg/g level, 14 days",11.8 meq/kg
same,p-Anisidine value (p-AV),"[2]; 0.5 mg/g level, 14 days",12.4
same,"Peroxide values (PV, meq/kg)","[2]; 0.5 mg/g level, 19 days",19.5 meq/kg
same,p-Anisidine value (p-AV),"[2]; 0.5 mg/g level, 19 days",12.9
same,"Peroxide values (PV, meq/kg)","[2]; 0.5 mg/g level, Initial",1 meq/kg
same,p-Anisidine value (p-AV),"[2]; 0.5 mg/g level, Initial",9.4
same,"Peroxide values (PV, meq/kg)","[2]; 2 mg/g level, 1 day",1 meq/kg
same,p-Anisidine value (p-AV),"[2]; 2 mg/g level, 1 day",9.3
same,"Peroxide values (PV, meq/kg)","[2]; 2 mg/g level, 5 days",1.9 meq/kg
same,p-Anisidine value (p-AV),"[2]; 2 mg/g level, 5 days",9.3
same,"Peroxide values (PV, meq/kg)","[2]; 2 mg/g level, 8 days",8.2 meq/kg
same,p-Anisidine value (p-AV),"[2]; 2 mg/g level, 8 days",11.1
same,"Peroxide values (PV, meq/kg)","[2]; 2 mg/g level, 14 days",16.4 meq/kg
same,p-Anisidine value (p-AV),"[2]; 2 mg/g level, 14 days",11.9
same,"Peroxide values (PV, meq/kg)","[2]; 2 mg/g level, 19 days",27.3 meq/kg
same,p-Anisidine value (p-AV),"[2]; 2 mg/g level, 19 days",12.9
same,"Peroxide values (PV, meq/kg)","[2]; 2 mg/g level, Initial",1 meq/kg
same,p-Anisidine value (p-AV),"[2]; 2 mg/g level, Initial",9.4
same,OSI,[3]; 0.5 mg/g,16.38 h
same,OSI,[3]; 2 mg/g,18.53 h
same,Protection Factor (%),[3]; 0.5 mg/g,9.2%
same,Protection Factor (%),[3]; 2 mg/g,23.5%
same,OSI,[1]; 0.5 mg/g,6.15 h
same,OSI,[1]; 2 mg/g,7.23 h
same,Protection Factor (%),[1]; 0.5 mg/g,23%
same,Protection Factor (%),[1]; 2 mg/g,44.5%
same,antioxidant activity (OSI) in fish oil compared with MNT,[1],comparable in activity with MNT
"CC(C)CCCC(C)CCCC1(C)CCc2cc(O)ccc2O1 (centres unmarked) [Compound of formula (8), 2-(4,8-dimethylnonyl)-2-methyl-chroman-6-ol]","Solubility in fish oil, 80° C.",Solubility in fish oil; 0.5 mg/g,soluble
same,"Solubility in fish oil, Room temp.",Solubility in fish oil; 0.5 mg/g,soluble
same,"Solubility in fish oil, 80° C.",Solubility in fish oil; 2.0 mg/g,soluble
same,"Solubility in fish oil, Room temp.",Solubility in fish oil; 2.0 mg/g,soluble
same,CD (conjugated dienoic acid in %),[4]; 4 days,0.6%
same,PV (peroxide value),[4]; 4 days,1.6
same,p-AV (p-anisidine value),[4]; 4 days,10.3
same,CD (conjugated dienoic acid in %),[4]; 6 days,0.6%
same,PV (peroxide value),[4]; 6 days,1.8
same,p-AV (p-anisidine value),[4]; 6 days,9.8
same,CD (conjugated dienoic acid in %),[4]; 8 days,0.2%
same,PV (peroxide value),[4]; 8 days,3.1
same,p-AV (p-anisidine value),[4]; 8 days,10
same,CD (conjugated dienoic acid in %),[4]; 11 days,0.7%
same,PV (peroxide value),[4]; 11 days,3.7
same,p-AV (p-anisidine value),[4]; 11 days,10.4
same,CD (conjugated dienoic acid in %),[4]; 13 days,0.7%
same,PV (peroxide value),[4]; 13 days,8.7
same,p-AV (p-anisidine value),[4]; 13 days,10.6
same,CD (conjugated dienoic acid in %),[4]; 15 days,0.8%
same,PV (peroxide value),[4]; 17 days,11.5
same,p-AV (p-anisidine value),[4]; 17 days,11
same,CD (conjugated dienoic acid in %),[4]; Initial,0.7%
same,PV (peroxide value),[4]; Initial,0.9
same,p-AV (p-anisidine value),[4]; Initial,9.9
same,OSI,"[5]; Table 16, 80° C., 0.5 mg/g",5.48 h
same,OSI,"[5]; Table 16, 80° C., 2 mg/g",5.96 h
same,Protection Factor (%),"[5]; Table 19, 0.5 mg/g",15.42%
same,Protection Factor (%),"[5]; Table 19, 2 mg/g",25.89%
same,OSI,"[5]; Table 21, 2 mg/g + 0.5 mg/g of AP (ascorbyl palmitate)",7.03 h
same,OSI,"[5]; Table 21, 2 mg/g, without AP",6.58 h
same,Protection Factor (%),"[5]; Table 23, 2 mg/g + 0.5 mg/g of AP",130%
same,Protection Factor (%),"[5]; Table 23, 2 mg/g, without AP",145%
